The assay has as its target Methionine--tRNA ligase, mitochondrial (Homo sapiens) (UniProt Q96GW9). The assay is described as follows: human mitochondrial MetRS inhibitors, late-stage follow-up, counter-screen for T. brucei MetRS inhibitor project, biochemical, radioactivity, [3H]methionine, two concentrations (AID 720620). The conditions noted are these: recombinant human mitochondrial MetRS, [3H]Met-tRNA charging, 60 min, stronger effect = higher value. For orientation: Counterscreens check selectivity or assay interference.

The source made the active and inactive calls.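 Rule for the calls: active = at least 50% inhibition of the human mitochondrial methionine-charging enzyme at 10 µM; inactive = under 50% inhibition at 10 µM.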

Sequence of Methionine--tRNA ligase, mitochondrial (Homo sapiens) (Q96GW9 whole entry, looked up): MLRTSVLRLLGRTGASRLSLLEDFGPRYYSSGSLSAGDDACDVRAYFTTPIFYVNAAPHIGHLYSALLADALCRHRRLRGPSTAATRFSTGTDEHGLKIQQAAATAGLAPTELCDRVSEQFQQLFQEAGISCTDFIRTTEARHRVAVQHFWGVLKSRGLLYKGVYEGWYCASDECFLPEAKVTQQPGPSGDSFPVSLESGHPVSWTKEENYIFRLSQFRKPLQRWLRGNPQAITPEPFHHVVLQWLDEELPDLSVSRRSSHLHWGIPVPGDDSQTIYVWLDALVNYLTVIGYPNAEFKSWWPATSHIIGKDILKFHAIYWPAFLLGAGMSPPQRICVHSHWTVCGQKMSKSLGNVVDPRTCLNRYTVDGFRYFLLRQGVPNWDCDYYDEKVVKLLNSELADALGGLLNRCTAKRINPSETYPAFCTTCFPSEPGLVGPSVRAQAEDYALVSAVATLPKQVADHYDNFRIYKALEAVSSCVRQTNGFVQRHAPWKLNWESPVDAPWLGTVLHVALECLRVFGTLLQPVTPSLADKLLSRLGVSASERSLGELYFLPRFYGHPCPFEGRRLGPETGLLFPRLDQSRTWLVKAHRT

With `COc1cccc(NC(=O)CSc2nnc3c(n2)[nH]c2ccc(C)cc23)c1`, the inhibition (as a rule, the relative decrease from the control value, in per cent) (at 10 µM) was 40.4% (inactive) and the inhibition (inhibition, at 1 µM) is 49.7%.
For `O=C(NCCc1nc2ccccc2[nH]1)c1ccc(Cl)c([N+](=O)[O-])c1` the same measures were 25.5% (inactive) and 2.97%.
As to `O=C(NCc1nc2ccccc2[nH]1)C1=C[C@@H](c2ccc3c(c2)OCO3)C[C@@H](OCCCCO)O1`, the inhibition was -0.58% (inactive) (at 10 µM) and -3.63% (inhibition, at 1 µM).
Consider `CC(=O)c1ccc(N2CCN(C(=O)CCCn3c(=O)[nH]c4ccc(Br)cc4c3=O)CC2)cc1`, for which the inhibition by setting is: (at 10 µM) 7.87% (inactive); (inhibition, at 1 µM) -14.1%.
The like results for `CCO[C@H]1OC(C(=O)NCc2nc3ccccc3[nH]2)=C[C@@H](c2ccc(Br)cc2)[C@@H]1CCCO` were, in that order, 11.7% (inactive) and -15%.
The like results for `COc1ccccc1NS(=O)(=O)c1cccc(NC(=O)Nc2ccccc2)c1` were, in that order, 19.1% (inactive) and -9.69%.
The like results for `CCOC(=O)N1CCC(Nc2c(Nc3ccc(F)cc3)c(=O)c2=O)CC1` were, in that order, -4.56% (inactive) and -8.53%.
In the case of `O=C(NNC(=O)c1ccc(-n2cncn2)c([N+](=O)[O-])c1)c1ccc(Cl)cc1`, the inhibition (at 10 µM) was -21.4% (inactive) and the inhibition (inhibition, at 1 µM) is -30.3%.
For the compound `CC(=O)c1c[nH]c(C(=O)NCc2cccc(C(F)(F)F)c2)c1`, the inhibition (at 10 µM) is 43.8% (inactive) and the inhibition (inhibition, at 1 µM) is -7.99%.
In the case of `O=C(NCc1nc2ccccc2[nH]1)C1=C[C@H](c2ccccc2)C[C@H](OCc2ccc(CO)cc2)O1`, the inhibition by setting is: (at 10 µM) 12.7% (inactive); (inhibition, at 1 µM) -8.08%.
Consider `CCO[C@@H]1OC(C(=O)NCc2nc3ccccc3[nH]2)=C[C@H](c2ccc(Br)cc2)[C@H]1CCCO`, for which the inhibition is, setting by setting: (at 10 µM) -6.53% (inactive); (inhibition, at 1 µM) -4.89%.
For `Clc1ccc(-c2nnc(SCc3nc4ccccc4[nH]3)o2)c(Cl)c1` the same measures were 41.9% (inactive) and -3.17%.
The like results for `Brc1cnc2nc(SCc3nc4ccccc4[nH]3)[nH]c2c1` were, in that order, -14.2% (inactive) and -21.5%.
For `O=C(NCc1nc2ccccc2[nH]1)C1=C[C@@H](C2CC2)C[C@@H](OCc2ccc(CO)cc2)O1` the same measures were 5.87% (inactive) and -11.4%.
As for `CC(C)OCCCN1CC(=O)N2C(c3cccc([N+](=O)[O-])c3)c3[nH]c4ccccc4c3C[C@H]2C1=O` (stereo partly drawn), the inhibition was -3.65% (inactive) (at 10 µM) and -24.2% (inhibition, at 1 µM).
For `O=C(CC(=O)Nc1cccc(Cl)c1)NN=Cc1ccccc1` the same measures were 9.82% (inactive) and -18.3%.
The like results for `COc1ccc(OCC(O)CNC(=O)Nc2ccc(Cl)cc2)cc1` (stereo not drawn) were, in that order, 0.31% (inactive) and -6.26%.
On to `O=C1[C@@H]2Cc3c([nH]c4ccccc34)C(c3cccc([N+](=O)[O-])c3)N2C(=O)CN1CCCO` (stereo partly drawn), for which the inhibition reads like this: (at 10 µM) 4.46% (inactive); (inhibition, at 1 µM) -17.4%.
Consider `COc1ccc2[nH]c3nc(SCC(=O)Nc4ccc5c(c4)OCO5)nnc3c2c1`, for which the inhibition reads like this: (at 10 µM) 24.5% (inactive); (inhibition, at 1 µM) 14.3%.
For `O=C(Cn1cnc2ccccc21)Nc1cccc([N+](=O)[O-])c1` the same measures were -2.2% (inactive) and -15.4%.
The like results for `O=C(NCc1nc2ccccc2[nH]1)C1=C[C@H](c2ccc3c(c2)OCO3)C[C@H](OCCCCO)O1` were, in that order, 10.2% (inactive) and -10.7%.
The like results for `CCCCCCCCCC1NC(C(=O)O)Cc2c1[nH]c1ccccc21` (stereo not drawn) were, in that order, 9.9% (inactive) and -2.41%.
In the case of `O=C(NNC(=O)c1cc(-c2ccc(Cl)c(Cl)c2)nc2ccccc12)Nc1ccccc1`, the inhibition (at 10 µM) was -11.2% (inactive) and the inhibition (inhibition, at 1 µM) was -17.1%.
For `O=C(NCc1nc2ccccc2[nH]1)C1=C[C@@H](c2csc3ccccc23)C[C@@H](OCCCCO)O1` the same measures were 6.67% (inactive) and -15%.
On to `CN1CC(=O)N2C(c3cccc([N+](=O)[O-])c3)c3[nH]c4ccccc4c3C[C@H]2C1=O` (stereo partly drawn), for which the inhibition by setting is: (at 10 µM) 14% (inactive); (inhibition, at 1 µM) -17.1%.
For `O=C(NCc1nc2ccccc2[nH]1)C1=C[C@H](C2CC2)C[C@H](OCc2ccc(CO)cc2)O1` the same measures were 12.6% (inactive) and 7.99%.
For `CN(CC(=O)Nc1ccc(Cl)cc1)C(=O)c1ccc(-n2cncn2)c([N+](=O)[O-])c1` the same measures were -19.1% (inactive) and -36.7%.
For the compound `O=C(Nc1ccc(F)c(Cl)c1)C1CC(=O)n2c(nc3ccccc32)N1` (stereo not drawn), the inhibition is 4.32% (inactive) (at 10 µM) and -11.1% (inhibition, at 1 µM).
For `C[C@H](O)[C@@H]1C(=O)N2CCc3c([nH]c4ccccc34)[C@@H]2C[C@@H]1N(C)Cc1ccc2c(c1)OCO2` the same measures were 24.8% (inactive) and -17.7%.
For `CC(C)(C)[C@H]1C=C(C(=O)NCc2nc3ccccc3[nH]2)O[C@@H](OCc2ccc(CO)cc2)C1` the same measures were 10.3% (inactive) and -20.5%.
The like results for `CN(Cc1cc(Cl)cc(Cl)c1)[C@H]1C[C@H]2c3[nH]c4ccccc4c3CCN2C(=O)[C@H]1CO` were, in that order, 80.3% and 14%.
`O=C(NCc1nc2ccccc2[nH]1)C1=C[C@@H](c2ccccc2)C[C@@H](OCc2ccc(CO)cc2)O1`: the inhibition reads like this: (at 10 µM) 15.8% (inactive); (inhibition, at 1 µM) -16.8%.
In the case of `O=C1CC(SCc2nc3ccccc3[nH]2)C(=O)N1c1cccc(Cl)c1` (stereo not drawn), the inhibition is -0.68% (inactive) (at 10 µM) and -4.5% (inhibition, at 1 µM).
For `O=C(CN1CCSC1=NCc1ccccc1)c1ccc(Cl)c(Cl)c1` the same measures were -25.5% (inactive) and -25.1%.
Take `CC(CC(=O)Nc1cccc(Br)c1)=NNC(=O)c1ccc(O)cc1O`: the inhibition is 4.55% (inactive) (at 10 µM) and -24.6% (inhibition, at 1 µM).
For `Clc1ccc(OCCSCc2nc3ccccc3[nH]2)cc1` the same measures were -5.52% (inactive) and -20%.
For `O=C(NCc1nc2ccccc2[nH]1)C1=C[C@H](c2ccc(Br)cc2)C[C@H](OCCCCO)O1` the same measures were -2.4% (inactive) and -6.37%.
The like results for `Cc1[nH]c2ccc(Br)cc2c(=O)c1CN1CCCCCC1` were, in that order, -11% (inactive) and -31.2%.
As for `O=C(NCc1nc2ccccc2[nH]1)C1=C[C@@H](c2ccc(Br)cc2)C[C@@H](OCCCCO)O1`, the inhibition was 29% (inactive) (at 10 µM) and -9.46% (inhibition, at 1 µM).
Take `O=C1CC(N(CCc2ccccc2)C(=S)Nc2ccccc2)C(=O)N1c1ccc(Br)cc1` (stereo not drawn): the inhibition (at 10 µM) is 25.6% (inactive) and the inhibition (inhibition, at 1 µM) was -25.5%.
The like results for `O=C(CC=NOCc1ccc([N+](=O)[O-])cc1)Nc1ccc(Br)cc1` were, in that order, -6.71% (inactive) and -22.4%.
In the case of `Oc1c(Cl)cc(Cl)cc1CNc1nc2ccccc2[nH]1`, the inhibition runs as follows: (at 10 µM) 31.4% (inactive); (inhibition, at 1 µM) -0.2%.
As for `O=C(NCc1nc2ccccc2[nH]1)C1=C[C@H](c2csc3ccccc23)C[C@H](OCCCCO)O1`, the inhibition is, setting by setting: (at 10 µM) 2.21% (inactive); (inhibition, at 1 µM) -9.21%.
For `O=C(Cn1cc(C(=O)C(=O)N2CCOCC2)c2ccccc21)Nc1cccc(C(F)(F)F)c1` the same measures were -6.56% (inactive) and -22.4%.
The like results for `COc1ccccc1-n1c(SCC(=O)Nc2ccc(Cl)cc2)nc(O)c(Cc2ccccc2)c1=O` were, in that order, -19.7% (inactive) and -31.6%.
The like results for `O=C(CC=NOCc1ccc([N+](=O)[O-])cc1)Nc1ccc(Cl)cc1` were, in that order, 1.47% (inactive) and -13%.
In the case of `O=C(C[C@H]1C(=O)N(Cc2ccccc2)C[C@@H]1c1ccc(Br)cc1)Nc1ccc(Br)cc1`, the inhibition (at 10 µM) is -8.54% (inactive) and the inhibition (inhibition, at 1 µM) is -13%.
The like results for `CC(C)(C)[C@@H]1C=C(C(=O)NCc2nc3ccccc3[nH]2)O[C@H](OCc2ccc(CO)cc2)C1` were, in that order, -5.44% (inactive) and -10.6%.
The like results for `O=C(N/C(=C\c1cccnc1)c1nc2ccccc2[nH]1)c1cccc(Br)c1` were, in that order, 4.89% (inactive) and -19.7%.
On to `O=C(NCc1nc2ccccc2[nH]1)C1=C[C@@H](c2ccc(Br)cc2)C[C@@H](OCc2ccc(CO)cc2)O1`, for which the inhibition (at 10 µM) is 16.7% (inactive) and the inhibition (inhibition, at 1 µM) was -11.6%.
For `COc1ccc(CNC(=O)CSc2nnc3c(n2)[nH]c2ccc(F)cc23)cc1`, the inhibition was -12% (inactive) (at 10 µM) and -29.7% (inhibition, at 1 µM).
For `Cc1ccc(NC(=O)CN(C)C(=O)CCSc2ccc(F)cc2)cc1`, the inhibition is, setting by setting: (at 10 µM) -21.5% (inactive); (inhibition, at 1 µM) -35.7%.
For `O=C(NCc1nc2ccccc2[nH]1)C1=C[C@H](c2ccc(Br)cc2)C[C@H](OCc2ccc(CO)cc2)O1` the same measures were 17.2% (inactive) and 0.59%.
The like results for `O=C(CCC(=O)Nc1cccc([N+](=O)[O-])c1)NN=Cc1cccs1` were, in that order, -14.1% (inactive) and -28.9%.
